Results reported in ChEMBL document CHEMBL5236561, “Rugonidines A-F, Diastereomeric 1,6-Dioxa-7,9-diazaspiro[4.5]dec-7-en-8-amines from the Leaves of Alchornea rugosa” (J Nat Prod, 2021).
Active and inactive are the calls of the source.

How the values were obtained:
Format in all cases: functional, cell-based
3T3-L1 [1] = test: Induction of glucose uptake in mouse 3T3-L1 cells assessed as stimulation of in 2-NBDG uptake by measuring fluorescence intensity at 20 uM incubated for 1 hr in glucose free media hr by fluorescence microscopic analysis
3T3-L1 [2] = test: Induction of glucose uptake in mouse 3T3-L1 cells assessed as stimulation of in 2-NBDG uptake by measuring fluorescence intensity at 5 to 20 uM incubated for 1 hr in glucose free media hr by fluorescence microscopic analysis; conditions: dose 5-20 µM
3T3-L1 [3] = test: Induction of glucose uptake in mouse 3T3-L1 cells assessed as stimulation of in 2-NBDG uptake by measuring fluorescence intensity incubated for 1 hr in glucose free media hr by fluorescence microscopic analysis; conditions: dose 5-20 µM

Measured: Activity

CC(C)=CCNC1=NO[C@@]2(CN1)Oc1cc(O)c3c(c1C2(C)C)O[C@H](c1ccc(O)c(O)c1)[C@@H](O[C@@H]1O[C@@H](C)[C@H](O)[C@@H](O)[C@H]1O)C3
active: 3T3-L1 [1] | 3T3-L1 [2] | 3T3-L1 [3] Dose-Dependent Effect

C[C@@H]1O[C@@H](O[C@H]2Cc3c(O)cc4c(c3O[C@@H]2c2ccc(O)c(O)c2)C(C)(C)[C@@]2(CNC(N)=NO2)O4)[C@H](O)[C@H](O)[C@H]1O
active: 3T3-L1 [1] | 3T3-L1 [2] | 3T3-L1 [3] Dose-Dependent Effect

CC(C)=CCNC1=NO[C@]2(CN1)Oc1cc(O)c3c(c1C2(C)C)O[C@H](c1ccc(O)c(O)c1)[C@@H](O[C@@H]1O[C@@H](C)[C@H](O)[C@@H](O)[C@H]1O)C3
active: 3T3-L1 [1] | 3T3-L1 [2] | 3T3-L1 [3] Dose-Dependent Effect
